According to ChEMBL document CHEMBL1133939, “Structure-activity relationship studies of a bisbenzimidazole-based, Zn(2+)-dependent inhibitor of HCV NS3 serine protease” (Bioorg Med Chem Lett, 2001):

target: T1, NS3 (Hepatitis C virus, UniProt A3EZJ3); assay: Inhibitory activity against hepatitis C virus (HCV) NS3 protease in the presence of Zn2+.; design: species or system Hepacivirus hominis
T1 sequence (A3EZJ3 whole entry): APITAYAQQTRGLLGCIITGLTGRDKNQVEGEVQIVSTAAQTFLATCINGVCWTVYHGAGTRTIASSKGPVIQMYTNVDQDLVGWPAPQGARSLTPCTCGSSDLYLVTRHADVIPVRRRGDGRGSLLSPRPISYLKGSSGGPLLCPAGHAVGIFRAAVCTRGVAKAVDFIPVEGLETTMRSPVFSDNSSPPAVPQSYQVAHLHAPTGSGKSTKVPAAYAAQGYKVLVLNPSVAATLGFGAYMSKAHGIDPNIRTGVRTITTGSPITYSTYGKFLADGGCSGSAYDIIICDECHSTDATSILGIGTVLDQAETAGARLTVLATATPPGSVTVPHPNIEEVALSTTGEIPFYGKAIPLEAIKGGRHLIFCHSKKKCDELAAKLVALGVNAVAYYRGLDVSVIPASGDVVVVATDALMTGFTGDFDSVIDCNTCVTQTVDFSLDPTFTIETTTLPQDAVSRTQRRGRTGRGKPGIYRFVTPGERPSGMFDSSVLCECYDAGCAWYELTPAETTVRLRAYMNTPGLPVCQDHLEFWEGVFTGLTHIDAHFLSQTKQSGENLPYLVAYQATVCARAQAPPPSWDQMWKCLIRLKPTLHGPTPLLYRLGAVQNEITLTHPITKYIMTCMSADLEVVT

Question: For Cn1c(Cc2nc3ccc(C(N)=O)cc3[nH]2)nc2ccc(C(=O)NC(CCCCCP(=O)(O)O)C(=O)O)cc21 (configuration not stated), which IC50 is on record?
Answer: 0.51 µM

Question: For Cn1c(Cc2nc3cc(C(N)=O)ccc3[nH]2)nc2ccc(C(=O)NC(CP(=O)(O)O)C(=O)O)cc21 (configuration not stated), which IC50 is on record?
Answer: 0.2 µM

Question: Which IC50 does the source give for Cn1c(Cc2nc3cc(C(N)=O)ccc3[nH]2)nc2ccc(C(=O)NC(CC(=O)NS(=O)(=O)c3ccccc3C(=O)O)C(=O)O)cc21 (configuration not stated) here?
Answer: 1.6 µM

Question: With Cn1c(Cc2nc3cc(C(N)=O)ccc3[nH]2)nc2ccc(C(=O)NC(CCCP(=O)(O)O)C(=O)O)cc21 (configuration not stated) as the compound, how does the IC50 read?
Answer: 0.82 µM

Question: Which IC50 does the source give for COC(=O)c1ccccc1S(=O)(=O)NC(=O)CC(NC(=O)c1ccc2nc(Cc3nc4ccccc4[nH]3)n(C)c2c1)C(=O)O (configuration not stated) here?
Answer: 11 µM

Question: Cn1c(Cc2nc3cc(C(N)=O)ccc3[nH]2)nc2ccc(C(=O)Nc3cc(C(=O)O)cc(C(=O)NC(CCC(=O)O)C(=O)O)c3)cc21 (configuration not stated) was tested. Which IC50 did it give?
Answer: 2 µM

Question: Which IC50 does the source give for Cn1c(Cc2nc3ccccc3[nH]2)nc2ccc(C(=O)NCCc3ccc(OCC(=O)NS(=O)(=O)c4ccccc4)cc3)cc21 here?
Answer: 12 µM

Question: Which IC50 does the source give for Cn1c(Cc2nc3ccc(C(N)=O)cc3[nH]2)nc2ccc(C(=O)NC(Cc3ccc(OCC(=O)O)cc3)C(=O)O)cc21 (configuration not stated) here?
Answer: 1 µM

Question: How did the IC50 turn out when Cn1c(Cc2nc3cc(C(N)=O)ccc3[nH]2)nc2ccc(C(=O)NC(CCP(=O)(O)O)C(=O)O)cc21 (configuration not stated) was run?
Answer: 0.87 µM

Question: Which IC50 does the source give for Cn1c(Cc2nc3ccc(C(N)=O)cc3[nH]2)nc2ccc(C(=O)NC(Cc3ccc(C(=O)O)c(OCC(=O)O)c3)C(=O)O)cc21 (configuration not stated) here?
Answer: 9 µM

Question: Which IC50 does the source give for Cn1c(Cc2nc3ccc(C(N)=O)cc3[nH]2)nc2ccc(C(=O)Nc3cccc(C(=O)NCCCC(=O)O)c3)cc21 here?
Answer: 43 µM

Question: With Cn1c(Cc2nc3cc(C(N)=O)ccc3[nH]2)nc2ccc(C(=O)NCCc3ccc(OCC(=O)O)cc3)cc21 as the compound, how does the IC50 read?
Answer: 16 µM

Question: Cn1c(Cc2nc3ccc(C(N)=O)cc3[nH]2)nc2ccc(C(=O)NC(Cc3cc(OCC(=O)O)ccc3C(=O)O)C(=O)O)cc21 (configuration not stated) was tested. Which IC50 did it give?
Answer: 12 µM

Question: With COC(=O)c1ccccc1S(=O)(=O)NC(=O)CC(NC(=O)c1ccc2nc(Cc3nc4ccc(C(N)=O)cc4[nH]3)n(C)c2c1)C(=O)O (configuration not stated) as the compound, how does the IC50 read?
Answer: 8.1 µM

Question: For Cn1c(Cc2nc3ccc(C(N)=O)cc3[nH]2)nc2ccc(C(=O)NC(Cc3ccc(O)c(C(=O)O)c3)C(=O)O)cc21 (configuration not stated), which IC50 is on record?
Answer: 7 µM

Question: Which IC50 does the source give for Cn1c(Cc2nc3cc(C(N)=O)ccc3[nH]2)nc2ccc(C(=O)NC(Cc3cccc(C(=O)O)c3)C(=O)O)cc21 (configuration not stated) here?
Answer: 25 µM

Question: With COC(=O)c1ccccc1S(=O)(=O)NC(=O)CC[C@H](NC(=O)c1ccc2nc(Cc3nc4cc(C(N)=O)ccc4[nH]3)n(C)c2c1)C(=O)OCc1ccccc1 as the compound, how does the IC50 read?
Answer: 29 µM

Question: Which IC50 does the source give for COC(=O)c1ccccc1S(=O)(=O)NC(=O)C[C@H](NC(=O)c1ccc2nc(Cc3nc4ccc(C(N)=O)cc4[nH]3)n(C)c2c1)C(=O)OCc1ccccc1 here?
Answer: 37 µM

Question: Which IC50 does the source give for Cn1c(Cc2nc3cc(C(N)=O)ccc3[nH]2)nc2ccc(C(=O)NC(Cc3ccc(OCC(=O)O)c(C(=O)O)c3)C(=O)O)cc21 (configuration not stated) here?
Answer: 4 µM

Question: For Cn1c(Cc2nc3ccccc3[nH]2)nc2ccc(C(=O)NC(CCC(=O)N(CC(=O)O)CC(=O)O)C(=O)O)cc21 (configuration not stated), which IC50 is on record?
Answer: 7.7 µM

Question: With Cn1c(Cc2nc3ccccc3[nH]2)nc2ccc(C(=O)NC(CC(=O)NS(=O)(=O)c3ccccc3C(=O)O)C(=O)O)cc21 (configuration not stated) as the compound, how does the IC50 read?
Answer: 3.4 µM

Question: With Cn1c(Cc2nc3ccc(C(N)=O)cc3[nH]2)nc2ccc(C(=O)Nc3cccc(C(=O)NC(CCC(=O)O)C(=O)O)c3)cc21 (configuration not stated) as the compound, how does the IC50 read?
Answer: 6.4 µM

Question: Which IC50 does the source give for Cn1c(Cc2nc3cc(C(N)=O)ccc3[nH]2)nc2ccc(C(=O)Nc3cc(C(=O)O)cc(C(=O)NC(CC(=O)O)C(=O)O)c3)cc21 (configuration not stated) here?
Answer: 1 µM

Question: With Cn1c(Cc2nc3ccc(C(N)=O)cc3[nH]2)nc2ccc(C(=O)NC(CCC(=O)NS(=O)(=O)c3ccccc3C(=O)O)C(=O)O)cc21 (configuration not stated) as the compound, how does the IC50 read?
Answer: 2.6 µM

Question: With Cn1c(Cc2nc3cc(C(N)=O)ccc3[nH]2)nc2ccc(C(=O)NC(CC(C(=O)O)C(=O)O)C(=O)O)cc21 (configuration not stated) as the compound, how does the IC50 read?
Answer: 2.6 µM

Question: How did the IC50 turn out when Cn1c(Cc2nc3ccc(C(N)=O)cc3[nH]2)nc2ccc(C(=O)Nc3ccc(C(=O)NC(CCC(=O)O)C(=O)O)cc3)cc21 (configuration not stated) was run?
Answer: 17 µM

target: T1, NS3; assay: Inhibitory activity against hepatitis C virus (HCV) NS3 protease in the absence of Zn2+; design: species or system Hepacivirus hominis

Question: With Cn1c(Cc2nc3cc(C(N)=O)ccc3[nH]2)nc2ccc(C(=O)NC(CP(=O)(O)O)C(=O)O)cc21 (configuration not stated) as the compound, how does the IC50 read?
Answer: 167 µM
